From patent publication US12435128B2, “Method for predicting therapeutic effect of LSD1 inhibitor based on expression of INSM1” (TAIHO PHARMACEUTICAL CO., LTD., priority 2017, dated 2025)
Structures can show the parent of a compound that is named as a salt. Where two headings read alike, the source gives them in different places.

Columns and labels:
Type in all cases: cell-based
[1] = test system: HEL cells (human acute myelocytic leukemia cell lines); experiment: Cell-growth inhibition test: HEL cells; conditions: read-out: IC50 (nM), Cell-Growth Inhibition Test: HEL Cells
Procedure: (§1) Under the following conditions, an in vitro cell-growth inhibition test was performed with respect to HEL cells (human acute myelocytic leukemia cell lines), NCI-H1417 cells (human small-cell lung cancer cell lines), and NCI-H146 cells (human small-cell lung cancer cell lines).
(§2) The cells with the Example compound or with dimethylsulfoxide alone were cultured at 37° C. in a 5% carbon-dioxide-containing incubator for 5 days (HEL cells) or 10 days (NCI-H1417 cells and NCI-H146 cells). After culture, the plate was allowed to stand at room temperature for 30 minutes, and 100 μL of the supernatant was removed from each well to leave 100 μL of the cell culture solution. To each well containing the remaining 100 μL of the cell culture solution, the same amount of CellTiter-Glo 2.0 Assay (Promega, Cat #: G9242) was added. The microplate was shaken with a plate mixer for 1 minute and then allowed to stand in a dark place for 10 minutes. Thereafter, the luminescence intensity of viable cells in each well was measured using a microplate reader (PerkinElmer, EnSpire). […] Cell growth rate(%)=T/C×100 • T: The luminescence intensity in a well to which the test compound was added (count per second) • C: The luminescence intensity in a well to which dimethylsulfoxide alone was added (count per second)

[2] = test system: NCI-H146 cells (human small-cell lung cancer cell lines); experiment: Cell-growth inhibition test: NCI-H146 cells; conditions: NCI-H146 cells; read-out: IC50 (nM), Cell-Growth Inhibition Test: NCI-H146 Cells
Procedure: as §1, §2

[3] = test system: NCI-H1417 cells (human small-cell lung cancer cell lines); experiment: Cell-growth inhibition test: NCI-H1417 cells; conditions: read-out: IC50 (nM), Cell-Growth Inhibition Test: NCI-H1417 Cells
Procedure: as §1, §2

| Compound | IC50 [1] [nM] | IC50 [2] [nM] | IC50 [3] [nM] | IC50 ([1]; HEL cells) [nM] | IC50 ([3]; NCI-H1417 cells) [nM] |
| --- | --- | --- | --- | --- | --- |
| CCC(O)(CC)Cn1nnc2cc(-c3ccc(C(=O)N4[C@@H]5CC[C@H]4[C@@H](N)C5)cc3-c3ccc(C#N)c(F)c3)c(F)c(Cl)c21 (single isomer, unassigned) [Example 218] | 0.22 | 0.33 | 0.21 | – | – |
| CC(C)(O)CC1OCc2cc(-c3ccc(C(=O)N4[C@@H]5CC[C@H]4[C@@H](N)C5)cc3-c3ccc(C#N)c(F)c3)c(F)cc21 (single isomer, unassigned) [Example 226] | 2.56 | 10.1 | 5.36 | – | – |
| Cc1c(F)c(-c2ccc(C(=O)N3[C@@H]4CC[C@H]3[C@@H](N)C4)cc2-c2ccc(C#N)c(F)c2)cc2nnn(CC(C)(C)O)c12 (single isomer, unassigned) [Example 228] | 0.68 | 0.51 | 0.3 | – | – |
| CNC(=O)c1cn(C)c2cc(F)c(-c3ccc(C(=O)N4[C@@H]5CC[C@H]4[C@@H](N)C5)cc3-c3ccc(C#N)c(F)c3)cc12 (single isomer, unassigned) [Example 237] | 28.5 | 5.14 | 6.63 | – | – |
| CN(C)C(=O)c1cn(C)c2cc(F)c(-c3ccc(C(=O)N4[C@@H]5CC[C@H]4[C@@H](N)C5)cc3-c3ccc(C#N)c(F)c3)cc12 (single isomer, unassigned) [Example 238] | 26.1 | 17.7 | 10.8 | – | – |
| CC(C)(O)Cn1nnc2cc(-c3ccc(C(=O)N4[C@@H]5CC[C@H]4[C@@H](N)C5)cc3-c3ccc(C#N)c(F)c3)c(F)c(C#N)c21 (single isomer, unassigned) [Example 247] | 3.02 | 3.84 | 1.4 | – | – |
| N#Cc1ccc(-c2cc(C(=O)N3[C@@H]4CC[C@H]3[C@@H](N)C4)ccc2-c2cc3nnn(CC4(O)CCC4)c3c(F)c2F)cc1F (single isomer, unassigned) [Example 254] | 0.2 | 0.36 | 0.18 | – | – |
| N#Cc1ccc(-c2cc(C(=O)N3[C@@H]4CC[C@H]3[C@@H](N)C4)ccc2-c2cc3nnn(CC4(O)CCC4)c3c(C(F)F)c2F)cc1F (single isomer, unassigned) [Example 260] | 0.13 | 0.48 | 0.13 | – | – |
| N#Cc1ccc(-c2cc(C(=O)N3[C@@H]4CC[C@H]3[C@@H](N)C4)ccc2-c2cc3nnn(CC4(O)CCC4)c3c(C#N)c2F)cc1F (single isomer, unassigned) [Example 264] | 0.84 | 0.96 | 0.3 | – | – |
| Cc1ccc(-c2ccc(CN3[C@@H]4CC[C@H]3[C@@H](N)C4)cc2-c2ccc(C#N)c(F)c2)c(F)c1 (single isomer, unassigned) [Example 283] | 0.79 | 11.1 | 2.1 | – | – |
| CC(C)(O)Cn1nnc2cc(-c3ccc(CN4[C@@H]5CC[C@H]4[C@@H](N)C5)cc3-c3ccc(C#N)c(F)c3)c(F)c(F)c21.Cl.Cl (single isomer, unassigned) [Example 285, dihydrochloride] | 0.046 | 0.49 | 0.09 | – | – |
| N#Cc1ccc(-c2cc(CN3[C@@H]4CC[C@H]3[C@@H](N)C4)ccc2-c2cc3nnn(CC4(O)CCC4)c3c(Cl)c2F)cc1F (single isomer, unassigned) [Example 286, dihydrochloride] | 0.036 | 0.17 | 0.083 | – | – |
| CCC(O)(CC)Cn1nnc2cc(-c3ccc(CN4[C@@H]5CC[C@H]4[C@@H](N)C5)cc3-c3ccc(C#N)c(F)c3)c(F)c(Cl)c21 (single isomer, unassigned) [Example 288, dihydrochloride] | 0.062 | 1.29 | 0.22 | – | – |
| CC(C)(O)Cn1ccc2cc(-c3ccc(CN4[C@@H]5CC[C@H]4[C@@H](N)C5)cc3-c3ccc(C#N)c(F)c3)c(F)cc21 (single isomer, unassigned) [Example 289, dihydrochloride] | 0.036 | 0.97 | 0.094 | – | – |
| Cn1ccc2cc(-c3ccc(C(=O)N4C5CCC4CC(N)C5)cc3-c3ccc(C#N)c(F)c3)ccc21 (stereo not drawn) [Example 18, 4-[5-[(3-exo)-3-amino-8-azabicyclo[3.2.1]octane-8-carbonyl]-2-(1-methylindol-5-yl)phenyl]-2-fluoro-benzonitrile] | – | 8.13 | – | 3.55 | 4.73 |
| Cn1ccc2cc(-c3ccc(C(=O)N4C5CCC4CC(N)C5)cc3-c3ccc(C#N)c(F)c3)c(F)cc21 (stereo not drawn) [Example 123, 4-[5-[(3-endo)-3-amino-8-azabicyclo[3.2.1]octane-8-carbonyl]-2-(6-fluoro-1-methyl-indol-5-yl)phenyl]-2-fluoro-benzonitrile] | – | 1.39 | – | 1.99 | 3.57 |
| CC(C)(O)Cn1ccc2cc(-c3ccc(C(=O)N4C5CCC4CC(N)C5)cc3-c3ccc(C#N)c(F)c3)c(F)c(F)c21 (stereo not drawn) [Example 183, 5′-((3-endo)-3-amino-8-azabicyclo[3.2.1]octane-8-carbonyl)-2′-(6,7-difluoro-1-(2-hydroxy-2-methylpropyl)-1H-indol-5-yl)-3-fluoro-[1,1′-biphenyl]-4-carbonitrile] | 0.54 | 0.25 | 1.01 | – | – |
| CC(C)(O)CCn1ncc2cc(-c3ccc(C(=O)N4C5CCC4CC(N)C5)cc3-c3ccc(C#N)c(F)c3)c(F)cc21 (stereo not drawn) [Example 194, 5′-((3-endo)-3-amino-8-azabicyclo[3.2.1]octane-8-carbonyl)-3-fluoro-2′-(6-fluoro-1-(3-hydroxy-3-methylbutyl)-1H-indazol-5-yl)-[1,1′-biphenyl]-4-carbonitrile] | 15.5 | 11.3 | 5.63 | – | – |
| CCC(O)(CC)Cn1ncc2cc(-c3ccc(C(=O)N4C5CCC4CC(N)C5)cc3-c3ccc(C#N)c(F)c3)c(F)cc21 (stereo not drawn) [Example 205, 5′-((3-endo)-3-amino-8-azabicyclo[3.2.1]octane-8-carbonyl)-2′-(1-(2-ethyl-2-hydroxybutyl)-6-fluoro-1H-indazol-5-yl)-3-fluoro-[1,1′-biphenyl]-4-carbonitrile] | 4.95 | 15.1 | 6.25 | – | – |
| CCC(O)(CC)Cn1nnc2cc(-c3ccc(C(=O)N4C5CCC4CC(N)C5)cc3-c3ccc(C#N)c(F)c3)c(F)c(Cl)c21 (stereo not drawn) [Example 220, 5′-((3-endo)-3-amino-8-azabicyclo[3.2.1]octane-8-carbonyl)-2′-(7-chloro-1-(2-ethyl-2-hydroxybutyl)-6-fluoro-1H-benzo[d][1,2,3]triazol-5-yl)-3-fluoro-[1,1′-biphenyl]-4-carbonitrile] | 1.09 | 1.81 | 1.03 | – | – |
| Cc1c(F)c(-c2ccc(C(=O)N3C4CCC3CC(N)C4)cc2-c2ccc(C#N)c(F)c2)cc2nnn(CC(C)(C)O)c12 (stereo not drawn) [Example 240, 5′-((3-endo)-3-amino-8-azabicyclo[3.2.1]octane-8-carbonyl)-3-fluoro-2′-(6-fluoro-1-(2-hydroxy-2-methylpropyl)-7-methyl-1H-benzo[d][1,2,3]triazol-5-yl)-[1,1′-biphenyl]-4-carbonitrile] | 4.2 | 4.81 | 2.55 | – | – |
| CC(C)(O)Cn1nnc2cc(-c3ccc(C(=O)N4C5CCC4CC(N)C5)cc3-c3ccc(C#N)c(F)c3)c(F)c(C(F)F)c21 (stereo not drawn) [Example 250, 5′-((3-endo)-3-amino-8-azabicyclo[3.2.1]octane-8-carbonyl)-2′-(7-(difluoromethyl)-6-fluoro-1-(2-hydroxy-2-methylpropyl)-1H-benzo[d][1,2,3]triazol-5-yl)-3-fluoro-[1,1′-biphenyl]-4-carbonitrile] | 2.36 | 9.3 | 1.2 | – | – |
| N#Cc1ccc(-c2cc(C(=O)N3C4CCC3CC(N)C4)ccc2-c2cc3nnn(CC4(O)CCC4)c3c(C(F)F)c2F)cc1F (stereo not drawn) [Example 262, 5′-((3-endo)-3-amino-8-azabicyclo[3.2.1]octane-8-carbonyl)-2′-(7-(difluoromethyl)-6-fluoro-1-((1-hydroxycyclobutyl)methyl)-1H-benzo[d][1,2,3]triazol-5-yl)-3-fluoro-[1,1′-biphenyl]-4-carbonitrile] | 0.93 | 3.1 | 0.7 | – | – |
| N#Cc1ccc(-c2cc(C(=O)N3C4CCC3CC(N)C4)ccc2-c2cc3nnn(CC4(O)CCC4)c3c(C#N)c2F)cc1F (stereo not drawn) [Example 266, 5-(5-((3-endo)-3-amino-8-azabicyclo[3.2.1]octane-8-carbonyl)-4′-cyano-3′-fluoro-[1,1′-biphenyl]-2-yl)-6-fluoro-1-((1-hydroxycyclobutyl)methyl)-1H-benzo[d][1,2,3]triazole-7-carbonitrile] | 4.63 | 17.5 | 1.85 | – | – |
